Measured values as given in ChEMBL document CHEMBL1201862, “PubChem BioAssay data set” (2004).
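Cells were grown in 96-well plates and exposed to each compound for 48 hours at five concentrations; endpoints were interpolated linearly between bracketing concentrations, or set to the highest concentration if not reached. At the GI50, growth is halved.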 Activity calls are given as the source filed them. Cut-off read from the data, not from the text of the source: active = GI50 up to about 1.1 µM and inactive = higher.

Key:
Assay in all cases: growth of human tumour cells (NCI), 48 h
SNB-75 = tested on: SNB-75
HCC 2998 = tested on: HCC 2998
PC-3 = tested on: PC-3
Hs-578T = tested on: Hs-578T
SNB-19 = tested on: SNB-19
786-0 = tested on: 786-0
MCF7 = tested on: MCF7
HOP-92 = tested on: HOP-92
HCT-15 = tested on: HCT-15
NCI-H226 = tested on: NCI-H226
SK-OV-3 = tested on: SK-OV-3
K562 = tested on: K562
SF-539 = tested on: SF-539
OVCAR-5 = tested on: OVCAR-5
UACC-62 = tested on: UACC-62
MDA-N = tested on: MDA-N
NCI-H460 = tested on: NCI-H460
SF-268 = tested on: SF-268
RPMI-8226 = tested on: RPMI-8226

Compound | GI50 (SNB-75) | GI50 (HCC 2998) | GI50 (PC-3) | GI50 (Hs-578T) | GI50 (SNB-19) | GI50 (786-0) | GI50 (MCF7) | GI50 (HOP-92) | GI50 (HCT-15) | GI50 (NCI-H226) | GI50 (SK-OV-3) | GI50 (K562) | GI50 (SF-539) | GI50 (OVCAR-5) | GI50 (UACC-62) | GI50 (MDA-N) | GI50 (NCI-H460) | GI50 (SF-268) | GI50 (RPMI-8226)
Sc1nc2c(c(-c3nc(S)nc4c3CCCCCCCCCC4)n1)CCCCCCCCCC2 | > 100 µM (inactive) | > 100 µM (inactive) | > 100 µM (inactive) | > 100 µM (inactive) | > 100 µM (inactive) | > 100 µM (inactive) | > 100 µM (inactive) | > 100 µM (inactive) | > 100 µM | > 100 µM (inactive) | > 100 µM (inactive) | > 100 µM (inactive) | > 100 µM (inactive) | > 100 µM (inactive) | > 100 µM (inactive) | > 100 µM (inactive) | > 100 µM (inactive) | > 100 µM (inactive) | –
[N-]=[N+]=NC(c1ccccc1)(c1ccccc1)c1ccccc1 | 16.9 µM (inactive) | 15.8 µM (inactive) | 15.2 µM (inactive) | 22.8 µM (inactive) | 18.4 µM (inactive) | 17.1 µM (inactive) | 17.5 µM (inactive) | 17.1 µM (inactive) | 18.1 µM | 17.3 µM (inactive) | 29.4 µM (inactive) | 14.8 µM (inactive) | 16.9 µM (inactive) | 16 µM (inactive) | 15.4 µM (inactive) | 16.4 µM (inactive) | 16.6 µM (inactive) | 18.5 µM (inactive) | 19.3 µM (inactive)
CCOC(=O)Cn1c(=O)c2nc(SC)sc2n(-c2ccccc2)c1=S | 4.1 µM (inactive) | 40 µM (inactive) | 26.2 µM (inactive) | 4.18 µM (inactive) | 13.4 µM (inactive) | 12.1 µM (inactive) | > 100 µM (inactive) | 4.8 µM (inactive) | 52 µM | 18.4 µM (inactive) | 22.7 µM (inactive) | > 100 µM (inactive) | 15.6 µM (inactive) | 93.3 µM (inactive) | < 0.01 µM (active) | 40.8 µM (inactive) | 30.1 µM (inactive) | 32.4 µM (inactive) | > 100 µM (inactive)
COc1ccc2c(c1)CCCN1CCc3ccccc3C21 (stereo not drawn) | 16.4 µM (inactive) | 69 µM (inactive) | 41.5 µM (inactive) | 35.7 µM (inactive) | 42.6 µM (inactive) | 26.6 µM (inactive) | 69.7 µM (inactive) | 37.2 µM (inactive) | 30.5 µM | 30.1 µM (inactive) | 52.2 µM (inactive) | 45.7 µM (inactive) | 28.6 µM (inactive) | 70.3 µM (inactive) | 32.5 µM (inactive) | 18.9 µM (inactive) | 56.1 µM (inactive) | 39.9 µM (inactive) | –
O=c1[nH]c(NCc2cccnc2)nc2[nH]cnc12 | > 100 µM (inactive) | > 100 µM (inactive) | > 100 µM (inactive) | > 100 µM (inactive) | > 100 µM (inactive) | > 100 µM (inactive) | > 100 µM (inactive) | > 100 µM (inactive) | > 100 µM | > 100 µM (inactive) | > 100 µM (inactive) | > 100 µM (inactive) | > 100 µM (inactive) | > 100 µM (inactive) | > 100 µM (inactive) | > 100 µM (inactive) | > 100 µM (inactive) | > 100 µM (inactive) | > 100 µM (inactive)
CC(C)(C)c1ccc(C(C)(C)C)c(N2C(=O)[C@@H]3[C@@H]4C=C[C@@H](C4)[C@]3(C)C2=O)c1 | – | 15.5 µM (inactive) | 20.2 µM (inactive) | 24.2 µM (inactive) | > 100 µM (inactive) | 17.4 µM (inactive) | 22.4 µM (inactive) | 0.869 µM (active) | 18.6 µM | 26.9 µM (inactive) | > 100 µM (inactive) | 26.8 µM (inactive) | 51.5 µM (inactive) | 86.5 µM (inactive) | 13.1 µM (inactive) | 14 µM (inactive) | 42 µM (inactive) | 27.9 µM (inactive) | 14.7 µM (inactive)
NC1=Nc2cc(C(F)(F)F)ccc2Sc2nc3ccccc3n21 | 19.9 µM (inactive) | > 94.8 µM (inactive) | 10.3 µM (inactive) | 42.1 µM (inactive) | 15.6 µM (inactive) | 11.6 µM (inactive) | > 76.9 µM (inactive) | 7.6 µM (inactive) | > 100 µM | 12.1 µM (inactive) | 37.5 µM (inactive) | 5.75 µM (inactive) | > 46.5 µM (inactive) | > 52.8 µM (inactive) | 57.4 µM (inactive) | 5.53 µM (inactive) | 10.1 µM (inactive) | 16.6 µM (inactive) | 6.25 µM (inactive)
COc1ccc(/N=c2/oc3ccccc3cc2C(N)=O)cc1 | 36.6 µM (inactive) | > 100 µM (inactive) | 80 µM (inactive) | 18.7 µM (inactive) | 1.91 µM (inactive) | 23.7 µM (inactive) | 22.5 µM (inactive) | 27.8 µM (inactive) | > 100 µM | 65.9 µM (inactive) | 20 µM (inactive) | > 100 µM (inactive) | 23.1 µM (inactive) | – | 34.8 µM (inactive) | > 100 µM (inactive) | > 100 µM (inactive) | 17.9 µM (inactive) | > 100 µM (inactive)
Cc1ccccc1C(=O)N/N=C/c1ccc(Sc2nccn2C)c([N+](=O)[O-])c1 | 63.2 µM (inactive) | 45.3 µM (inactive) | 67.8 µM (inactive) | 85.9 µM (inactive) | > 100 µM (inactive) | > 100 µM (inactive) | > 100 µM (inactive) | 14.3 µM (inactive) | 66.8 µM | > 100 µM (inactive) | > 100 µM (inactive) | 42.4 µM (inactive) | > 100 µM (inactive) | > 100 µM (inactive) | 71.9 µM (inactive) | 32.7 µM (inactive) | 49 µM (inactive) | > 100 µM (inactive) | 47.9 µM (inactive)
Cc1nc2ccccc2c(=O)n1/N=C/c1ccc(N(C)C)cc1 | 15.4 µM (inactive) | > 100 µM (inactive) | > 100 µM (inactive) | 15.3 µM (inactive) | 24.8 µM (inactive) | 71.4 µM (inactive) | > 100 µM (inactive) | 48.5 µM (inactive) | > 100 µM | > 100 µM (inactive) | 83.6 µM (inactive) | – | > 100 µM (inactive) | > 100 µM (inactive) | 71.8 µM (inactive) | > 100 µM (inactive) | > 100 µM (inactive) | 33.7 µM (inactive) | 4.24 µM (inactive)
Cc1cc2c3c(ccc4[nH]cc(c43)CN2c2ccc(NS(C)(=O)=O)cc2)n1 | 16.9 µM (inactive) | 30.2 µM (inactive) | > 100 µM (inactive) | > 100 µM (inactive) | 1.83 µM (inactive) | 11.4 µM (inactive) | 65 µM (inactive) | 24.5 µM (inactive) | > 100 µM | 28.3 µM (inactive) | 32.3 µM (inactive) | 90.6 µM (inactive) | – | > 100 µM (inactive) | > 100 µM (inactive) | > 100 µM (inactive) | 91.6 µM (inactive) | 3.28 µM (inactive) | 13.5 µM (inactive)
O=C(O)CSc1nnc(CCCCCCCCc2nnc(SCC(=O)O)o2)o1 | 21.9 µM (inactive) | > 100 µM (inactive) | > 100 µM (inactive) | 82.2 µM (inactive) | > 100 µM (inactive) | > 100 µM (inactive) | > 100 µM (inactive) | 79.8 µM (inactive) | > 100 µM | > 100 µM (inactive) | > 100 µM (inactive) | > 100 µM (inactive) | – | > 100 µM (inactive) | > 100 µM (inactive) | > 100 µM (inactive) | > 100 µM (inactive) | > 100 µM (inactive) | > 100 µM (inactive)
CCOc1cc2c(=O)oc3c(OC)ccc4ccc(c1OC)c2c43 | 64.3 µM (inactive) | 77.3 µM (inactive) | > 100 µM (inactive) | 44.8 µM (inactive) | 59.2 µM (inactive) | 36.5 µM (inactive) | > 100 µM (inactive) | > 100 µM (inactive) | > 100 µM | 60 µM (inactive) | 25.1 µM (inactive) | > 100 µM (inactive) | > 100 µM (inactive) | > 100 µM (inactive) | > 100 µM (inactive) | > 100 µM (inactive) | 25.1 µM (inactive) | > 100 µM (inactive) | –
CC(C)C(C/C=C1\CC(CO)(COC(=O)c2ccccc2)OC1=O)C(C)C (stereo not drawn) | 15.3 µM (inactive) | 22.4 µM (inactive) | 15.8 µM (inactive) | 13.1 µM (inactive) | 17.9 µM (inactive) | 14.8 µM (inactive) | 20.9 µM (inactive) | 13.4 µM (inactive) | 21.6 µM | 19.8 µM (inactive) | 28.1 µM (inactive) | 12 µM (inactive) | – | 14.3 µM (inactive) | > 100 µM (inactive) | 21.2 µM (inactive) | 15.8 µM (inactive) | 19 µM (inactive) | –
CC(=O)C1C(=O)C(=O)N(c2ccc([N+](=O)[O-])cc2)C1=O (stereo not drawn) | > 100 µM (inactive) | > 100 µM (inactive) | 52.7 µM (inactive) | > 100 µM (inactive) | > 100 µM (inactive) | > 100 µM (inactive) | > 100 µM (inactive) | > 100 µM (inactive) | > 100 µM | > 100 µM (inactive) | > 100 µM (inactive) | – | > 100 µM (inactive) | > 100 µM (inactive) | > 100 µM (inactive) | > 100 µM (inactive) | > 100 µM (inactive) | > 100 µM (inactive) | –
